Test results taken from PubChem BioAssay (NCI).
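Cultured in 96-well plates, cells were exposed to test compound for 48 hours across five concentrations. GI50 marks 50% less growth. TGI marks complete inhibition of growth.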

Key:
Experiment in all cases: inhibition of tumour cell growth, NCI panel, 48 h
HOP-92 NSCLC = test system: HOP-92 NSCLC
SK-MEL-28 melanoma = test system: SK-MEL-28 melanoma
PC-3 prostate = test system: PC-3 prostate
CAKI-1 renal = test system: CAKI-1 renal
MDA-N = test system: MDA-N
UACC-62 melanoma = test system: UACC-62 melanoma
K-562 leukemia = test system: K-562 leukemia
OVCAR-8 ovarian = test system: OVCAR-8 ovarian
LOX IMVI melanoma = test system: LOX IMVI melanoma
SF-539 CNS = test system: SF-539 CNS

| SMILES | TGI (HOP-92 NSCLC) | TGI (SK-MEL-28 melanoma) | TGI (PC-3 prostate) | TGI (CAKI-1 renal) | TGI (MDA-N) | TGI (UACC-62 melanoma) | TGI (K-562 leukemia) | TGI (OVCAR-8 ovarian) | TGI (LOX IMVI melanoma) | TGI (SF-539 CNS) | GI50 (LOX IMVI melanoma) | GI50 (HOP-92 NSCLC) | GI50 (PC-3 prostate) | GI50 (MDA-N) | GI50 (SF-539 CNS) | GI50 (UACC-62 melanoma) | GI50 (OVCAR-8 ovarian) | GI50 (SK-MEL-28 melanoma) | GI50 (CAKI-1 renal) |
| --- | --- | --- | --- | --- | --- | --- | --- | --- | --- | --- | --- | --- | --- | --- | --- | --- | --- | --- | --- |
| c1ccc(N=C2SC3=Nc4cccc5cccc(c45)N3C2=Nc2ccccc2)cc1 | > 100 µM | > 100 µM | > 100 µM | > 100 µM | > 100 µM | > 100 µM | > 100 µM | > 100 µM |  |  |  |  |  |  |  |  |  |  |  |
| CCOC(=O)Nn1c(C)nnc1-c1ccccc1 | > 100 µM |  | > 100 µM | > 100 µM | > 100 µM | > 100 µM | > 100 µM | > 100 µM | > 100 µM | > 100 µM |  |  |  |  |  |  |  |  |  |
| O=C1c2ccccc2C2C1N2C(=O)C(F)(F)F (stereo unspecified) | > 100 µM | > 100 µM |  | > 100 µM |  | > 100 µM | > 100 µM | > 100 µM | > 100 µM | > 100 µM |  |  |  |  |  |  |  |  |  |
| COc1cc([C@@H]2c3cc4c(cc3[C@@H](Nc3ccc([N+](=O)[O-])cc3C(=O)c3ccccc3)[C@H]3COC(=O)[C@H]23)OCO4)cc(OC)c1OC | > 100 µM |  | > 100 µM | > 100 µM |  | > 100 µM | > 100 µM | > 100 µM | > 100 µM | 0.502 µM |  |  |  |  |  |  |  |  |  |
| CCOc1cc2c(cc1O)/C(=N\OC)C[C@@H]1[C@@H]2CC[C@]2(C)[C@@H](O)CC[C@@H]12 | > 96.6 µM | > 60.2 µM | > 30.7 µM | > 23.4 µM | 0.031 µM | 24 µM | > 100 µM | 3.91 µM | 16.7 µM |  |  |  |  |  |  |  |  |  |  |
| FC(F)(F)c1cc(Cl)cnc1N/N=C(/c1ccccc1)c1ccccn1 | 16.3 µM | > 100 µM | 89.7 µM | 22.7 µM | > 100 µM | 13.2 µM | 49.9 µM | 5.06 µM |  | 12.9 µM |  |  |  |  |  |  |  |  |  |
| CNC(=O)OCC1=C(COC(=O)NC)C(C)N(c2ccc(OC)cc2)C1 (stereo unspecified) | > 100 µM | > 100 µM | > 100 µM |  |  | 57.3 µM | > 100 µM | > 100 µM | > 100 µM | > 100 µM |  |  |  |  |  |  |  |  |  |
| COc1ccc(C(OCC2OC(n3cc(C)c(=O)[nH]c3=O)CC2n2cc(Cn3cc(I)c(=O)[nH]c3=O)nn2)(c2ccccc2)c2ccccc2)cc1 (stereo unspecified) | > 100 µM | > 100 µM | > 100 µM | > 100 µM | > 100 µM | > 100 µM |  | > 100 µM | > 100 µM | > 100 µM |  |  |  |  |  |  |  |  |  |
| Cc1ccccc1-n1c(=O)c2ncn(CCCl)c2n(-c2ccccc2C)c1=S | > 100 µM | > 100 µM | > 100 µM | > 100 µM |  | > 100 µM | > 100 µM | > 100 µM | > 100 µM | > 100 µM |  |  |  |  |  |  |  |  |  |
| CC1C=C(CCCCCCCCCCCC[C@@H](O)[C@@H]2CC[C@@H]([C@@H]3CC[C@@H](C(O)CCCCCCCCCCCCC4=C[C@H](C)OC4=O)O3)O2)C(=O)O1 (stereo partly specified) | > 100 µM | > 100 µM |  | > 100 µM |  | > 100 µM | > 100 µM | > 100 µM | > 100 µM | 52.6 µM |  |  |  |  |  |  |  |  |  |
| Cc1ccsc1/C=N/Nc1ncccn1 | > 100 µM | > 100 µM | > 100 µM | > 100 µM | > 100 µM | > 100 µM | > 100 µM | > 100 µM | > 100 µM |  |  |  |  |  |  |  |  |  |  |
| Oc1ccc(-c2nc(-c3cccnc3)c(-c3ccc(F)cc3)[nH]2)cc1 |  | 35.9 µM | 35.2 µM | 78.6 µM | 37.5 µM | 29.6 µM | 54.6 µM | 34.3 µM | 28.5 µM |  |  |  |  |  |  |  |  |  |  |
| [N-]=[N+]=Nc1cc(=O)oc2ccccc12 |  | > 100 µM |  | > 100 µM |  | > 100 µM | > 100 µM | > 100 µM | > 100 µM | > 100 µM |  |  |  |  |  |  |  |  |  |
| N#CN=C(N(Cc1ccccc1)Cc1ccccc1)N(Cc1ccccc1)Cc1ccccc1 |  |  |  | > 100 µM |  | > 100 µM | > 100 µM | > 100 µM | > 100 µM | > 100 µM |  |  |  |  |  |  |  |  |  |
| CCCNC1=C2CC(C)CC(OC)[C@@H](O)[C@H](C)/C=C(\C)C(OC(N)=O)C(OC)/C=C\C=C(/C)C(=O)NC(=CC1=O)C2=O (stereo partly specified) |  |  | > 100 µM | > 100 µM | 17.1 µM | 41.9 µM | > 100 µM | 32.5 µM | 0.614 µM | 18.3 µM | 0.0466 µM | 16.8 µM | 0.477 µM | 0.0757 µM | 0.402 µM | 0.253 µM | 0.393 µM |  |  |
| CC(N)Cc1ccc(C(=O)Cl)cc1 (stereo unspecified) |  | > 100 µM |  | > 100 µM |  | > 100 µM | > 100 µM | > 100 µM | > 100 µM | > 100 µM |  |  |  |  |  |  |  |  |  |
| O=C([O-])CC(=O)[O-].O=C([O-])CC(=O)[O-].[K+].[Pd+2] |  | > 100 µM |  | > 100 µM |  | > 100 µM |  | > 100 µM | > 100 µM | > 100 µM | > 100 µM |  |  |  | > 100 µM | > 100 µM | > 100 µM | > 100 µM | > 100 µM |
| CCN(CC)CCC(=O)Nc1ccc2c(c1)C(=O)c1ccc(NC(=O)CCN(CC)CC)cc1C2=O | 30 µM | 24.6 µM |  | 14.7 µM |  | 22.3 µM | 14.8 µM | 18 µM | 6.19 µM | 15.3 µM |  |  |  |  |  |  |  |  |  |
| COc1ccc2c(=O)c(O)c(-c3ccc(OC)c(OC)c3)oc2c1 | 9.17 µM | > 100 µM | > 100 µM | 13 µM | > 100 µM | > 100 µM | > 100 µM | > 100 µM | > 100 µM |  |  |  |  |  |  |  |  |  |  |
| CCOC(=O)N1CCC2(CC1)C[C@](C)(C(C)=O)C(C)O2 (stereo partly specified) | > 100 µM | > 100 µM | > 100 µM | > 100 µM |  | > 100 µM | > 100 µM | > 100 µM | > 100 µM | > 100 µM |  |  |  |  |  |  |  |  |  |
| COc1nc(N)c(C(=O)CCl)c(=O)n1C | 16.1 µM | 26.4 µM |  | 23.4 µM |  |  | 34.3 µM | 52.8 µM | 20.8 µM | 32.6 µM |  |  |  |  |  |  |  |  |  |
| CCc1ccc(CCN2CCCCC2)nc1 | > 100 µM | > 100 µM | > 100 µM | > 100 µM | > 100 µM | > 100 µM | > 100 µM | > 100 µM | > 100 µM |  |  |  |  |  |  |  |  |  |  |
